From patent US20040224935A1, “Topical antiandrogenic steroids” (Endorecherche, Inc., priority 2003, published 2004) come the findings set out here.

One assay deals with rat seminal vesicle. Kind of assay: Systemic antiandrogenic activity in immature male rats (castrated, DHT implant), seminal vesicle weight. The conditions noted are these: po, 168 h, 0.5 mg/animal per os once daily 7 days, % efficacy relative to inhibition by flutamide, read-out: RAT (in vivo) (systemic) SV Inh % inh. (0.5 mg, per os). On the procedure: Column 6 represents the % of antiandrogenic efficacy on the rat seminal vesicle, relative to the percentage of inhibition by flutamide calculated by the formula:
(§1) % efficacy versus Flu=100×% inhib (compound)/% inhib (Flu).
(§2) Where the percentage of inhibition (% inhib) is calculated by the following formula:
(§3) % Inhib=100−[W (compound)−W (control)/W (DHT)−W (control)]×100.
W is the weight of the seminal vesicle.
(§4) C Systemic antiandrogenic activity (immature male rats)
(§5) 1. Animals Immature male rats (Crl:CD(SD)Br) 22 to 24-day old were obtained from Charles-River, Inc. (St-Constant, Quebec, Canada) and housed up to 5 per cage in plastic bins in a temperature (23±1° C.)—and light (12 h light/day, lights on at 7h15)—controlled environment. The rats were fed rodent chow and tap water ad libitum. The day following their arrival, the animals were orchidectornized (CX) under Isoflurane anesthesia via scrotal route and randomly assigned to groups of 5 animals. One silastic implant of dihydrotestosterone (DHT; length of implant: 1 cm) was inserted subcutaneously in the dorsal area of animals at the time of orchidectomy. One group of 5 animals was CX only as control (no DHT implant inserted).
(§6) 2. Treatments To evaluate the antiandrogenic activity, tested compounds were administered orally by gavage once daily at a dose of 0.5 mg/animal for 7 days (SD 1 to 7). Compounds were solubilized (when possible) in dimethylsulfoxide (DMS, 10% final concentration) and administered as suspension in 0.4% methylcellulose. Rats in CX control and CX+DHT control groups received the vehicle alone during the 7-day period. One group of animals received the antiandrogen Flutamide as reference. The animals were killed by cervical dislocation under isoflurane anesthesia on the 8th morning following castration. The ventral prostate and seminal vesicles were rapidly dissected and weighed.
(§7) 3. Calculations and Statistical Analysis The percentage of inhibition (% inhib) is calculated by the following formula:
(§8) This percentage is reported as % of efficacy, relatively to the percentage of inhibition of flutaride calculated by the formula: % efficacy versus Flu=100×% inhib (compound)/% inhib (Flu).
(§9) W is the weight of the prostate or the seminal vesicle.

The test system of a further assay is rat prostate. Kind of assay: Systemic antiandrogenic activity in immature male rats (castrated, DHT implant), prostate weight. The conditions noted are these: po, 168 h, 0.5 mg/animal per os once daily 7 days, % efficacy relative to inhibition by flutamide, read-out: RAT (in vivo) (systemic) Prostate Inh. % inh. (0.5 mg, per os). On the procedure:
Column 5 represents the % of antiandrogenic efficacy in rat prostate, relatively to the percentage of inhibition of flutamide calculated by the formula:
as §1, §2
% lnhib=100−[W (compound)−W (control)/W (DHT)−W (control)]×100.
W is the weight of the prostate.
as §4, §5, §6, §7, §3, §8, §9

Assay [1] has as its system Hamster's ear sebaceous glands. Kind of assay: Topical antiandrogenic activity, histomorphometry of the ear sebaceous glands in the hamster. Conditions: Mesocricetus auratus, 336 h, once daily, 14 days, sebaceous gland area, read-out: Antiandrogenic activity in Hamster's sebaceous glands Inh. Vs Cx (%); for inhibition in vivo at 0.001 mg: dose 1 μg applied topically on left ear of intact male hamster; for inhibition in vivo at 0.003 mg: dose 3 μg applied topically on left ear of intact male hamster; for inhibition in vivo at 0.01 mg: dose 10 μg applied topically on left ear of intact male hamster. Format: in vivo, Male Golden Syrian hamster. An excerpt: Column 3 represents the dose of antiandrogenic compounds applied on the left ear of the intact male hamster.
Column 4 represents the relative inhibition in % of the area of the sebaceous gland of the left ear versus control hamster. Higher values approaching the effect of castration are preferable
The Antiandrogenic activity of antiandrogenic compounds has been measured using a Histomorphometry assay of the Ear Sebaceous Glands in the Hamster
1. Animals Male Golden Syrian, Hamster (SYR) of 110-120 g were obtained from Harlan Sprague Dawlay (Madison, USA) and housed up to 2 per cage in plastic cages in a temperature (22±3° C.) and light (12 h light/day, lights on at 7 h 15) in a controlled environment. The hamsters were fed with Certified Rodent Diet 5002 (pellet) and tap water ad libitum. The animals were acclimated for at least five days before the beginning of the study. Animals were randomly assigned to groups of eight hamsters. One group of hamsters was castrated under isoflurane-induced anesthesia on the day of dosing initiation (SD 1) and used as control group.
2. Treatments To evaluate the antiandrogenic activity, tested compounds were applied topically on the inner part of the left ear, once daily, for 14 days. Ten μL solution of acetone: ethanol: propylene Glycol (1:1:2; v:v:v) containing 0.1, 0.3 or 1.0 mg/mL of tested compound was carefully applied onto a region between the two cartilage ridges of the ventral surface of left pinna. For animals in the castrated and intact control groups ten-μL vehicle was applied onto the left ear. No solution will be applied on the right ear for any animals of the study.
3. Postmortem Observations and Measurements On Study Day 15, the hamsters were euthanized by cervical dislocation under isoflurane anesthesia. The left and right ears were collected attached together by the head skin, flat fixed on a paper and were immersed in 10% neutral buffered formalin. From the flat fixed ear and using paper puncture that makes a hole of 6 mm, the region where solution was applied was collected from each ear. Using a scalpel blade, the collected 6 mm round ear specimen was cut in the middle between the two cartilage ridges. The two equal parts of the ear round specimen were embedded in paraffin. After processing the tissue, the two parts were vertically embedded parallel to each other in a way that the flat 6 mm area was facing out. From each paraffin block, one section (5 μm thick) was cut and collected on a glass slide. Thus, each slide contained two elongated sections of 6 mm length. Slides were stained with hematoxylin and eosin.
4. Analysis of Sebaceous Gland Area Using the video camera and objective lens number X5 of the light microscope, the resulting field that appears on the screen has a length of 0.953 mm. From the glass slide, when we have examined the first 6 mm long section from the left to the right, the first and second fields were ignored and the third and fourth fields were captured for analysis by the image analyzer. Each field has the length of 0.953 mm. With the help of the screen mouse, the sebaceous glands within the whole field length (0.953mm) were marked. Also, an area with the length of the whole field and the height between stratum granulosum and the upper edge of the cartilage was drawn.
The image analyzer calculated the total area of the sebaceous glands (μm^2) in each examined field. We also obtained the area, which has the length of 0.953 mm and the height between stratum granulosum and the cartilage. In addition, the percentage of the area occupied by the glands was obtained. Thus, for each ear, two sections were cut and two fields from each section were analyzed. The total of the four readings was averaged and the mean standard of error calculated by the image analyzer. The results were expressed in μm^2 as the total surface of glands per field and also as percentage of the area occupied by the glands.

Assay [2] relates to Shionogi mouse mammary carcinoma cells. Kind of assay: In vitro androgenic/antiandrogenic activity, DHT-stimulated Shionogi cell number. Format: cell-based. Conditions: for Shionogis (In Vitro) VS OH-FLU (ratio of Ki of hydroxyflutamide versus tested compound): OH-Flu = 1, DHT-stimulated cell number, higher values preferable.
[3] abbreviates: Mus musculus, read-out: Shionogis (In Vitro) IC50(nM), inhibition of DHT-stimulated cell number, 10-12 days.

Read-outs that look alike come from different tables or passages of the source.

On to `CC1(C)CC2C3CCc4c(Cl)cccc4C3CC[C@]2(C)[C@H]1O` (stereo partly shown) [EM-3415], for which the inhibition in vivo at 0.5 mg with rat seminal vesicle turned out to be 0%. Besides, in the assay with rat prostate, the inhibition in vivo at 0.5 mg is 0%. Also, in assay [1], the inhibition in vivo at 0.001 mg amounted to 0%, the inhibition in vivo at 0.003 mg came out at 11.1% and the inhibition in vivo at 0.01 mg came to 44.4%. The IC50 – broadly, the concentration at which inhibition is half-maximal – in assay [2] (setting [3]) turned out to be 26 nM. Also, the “Shionogis (In Vitro) VS OH-FLU (ratio of Ki of hydroxyflutamide versus tested compound)” value in assay [2] is reported as 2.5.

As to `C[C@]12CCC3c4cccc(C#N)c4CCC3C1C[C@@H](C#CC1CC1)[C@@H]2O` (stereo partly shown) [EM-3473], the inhibition in vivo at 0.5 mg with rat seminal vesicle came to 0%. The inhibition in vivo at 0.5 mg in the assay with rat prostate came to 0%. In assay [1], the inhibition in vivo at 0.001 mg is 7.4%, the inhibition in vivo at 0.003 mg came out at 0% and the inhibition in vivo at 0.01 mg was 14.8%. Further, the IC50 in assay [2] (setting [3]) stood at 9.3 nM. In addition, the “Shionogis (In Vitro) VS OH-FLU (ratio of Ki of hydroxyflutamide versus tested compound)” value in assay [2] worked out at 9.

Regarding `CC1(C)C[C@H]2[C@@H]3CCc4cc(F)ccc4[C@H]3CC[C@]2(C)[C@H]1O` [EM-3497, 3fluoro-16,16-dimethyl-1,3,5(10)-estratrien-17β-ol], the inhibition in vivo at 0.5 mg with rat seminal vesicle was determined as 0%. Moreover, in the assay on rat prostate, the inhibition in vivo at 0.5 mg was determined as 0%. In assay [1], the inhibition in vivo at 0.001 mg came out at 62.9%, the inhibition in vivo at 0.003 mg is 62.9% and the inhibition in vivo at 0.01 mg was found to be 77.7%. The IC50 in assay [2] (setting [3]) was 46 nM. Besides, the “Shionogis (In Vitro) VS OH-FLU (ratio of Ki of hydroxyflutamide versus tested compound)” value in assay [2] is on record as 1.5.

In the case of `C[C@@H]1CCC2C3CCc4c(C#N)cccc4C3CC[C@]2(C)[C@H]1O` (stereo partly shown) [EM-3803], the inhibition in vivo at 0.5 mg in the assay with rat seminal vesicle amounted to 30%. Also, the inhibition in vivo at 0.5 mg in the assay with rat prostate was determined as 0%. In addition, in assay [1], the inhibition in vivo at 0.001 mg worked out at 33.3%, the inhibition in vivo at 0.003 mg turned out to be 51.8% and the inhibition in vivo at 0.01 mg was found to be 37%. Besides, in assay [2] (Mus musculus, inhibition of DHT-stimulated cell number, 10-12 days, read-out: Shionogis (In Vitro) IC50), the IC50 is 11 nM. Further, in assay [2] (inhibition of DHT-stimulated cell number, 10-12 days, read-out: Shionogis (In Vitro) IC50), the IC50 is 8.6 nM.

With `CC[C@@H]1CC2C3CCc4c(C#N)cccc4C3CC[C@]2(C)[C@H]1O` (stereo partly shown) [EM-3852], the inhibition in vivo at 0.5 mg in the assay with rat seminal vesicle was 0%. The inhibition in vivo at 0.5 mg in the assay with rat prostate was found to be 0%. Moreover, in assay [1], the inhibition in vivo at 0.003 mg amounted to 66.6% and the inhibition in vivo at 0.01 mg was found to be 70.4%. The IC50 in assay [2] (setting [3]) stood at 16.1 nM. In assay [2], the “Shionogis (In Vitro) VS OH-FLU (ratio of Ki of hydroxyflutamide versus tested compound)” value is on record as 8.7.

`CC#Cc1ccc2c(c1C#N)CCC1C2CC[C@]2(C)C(=O)CCC12` (stereo partly shown) [EM-4142]: in the assay with rat seminal vesicle, the inhibition in vivo at 0.5 mg was 22%. In the assay on rat prostate, the inhibition in vivo at 0.5 mg amounted to 0%. In assay [1], the inhibition in vivo at 0.001 mg was 18.5%, the inhibition in vivo at 0.003 mg was found to be 18.5% and the inhibition in vivo at 0.01 mg was 37%. The IC50 in assay [2] (setting [3]) came to 29 nM. In addition, the “Shionogis (In Vitro) VS OH-FLU (ratio of Ki of hydroxyflutamide versus tested compound)” value in assay [2] is recorded as 3.7.

With `CC(C)[C@H]1CC2C3CCc4c(C#N)cccc4C3CC[C@]2(C)[C@H]1O` (stereo partly shown) [EM-4157], the inhibition in vivo at 0.5 mg in the assay with rat seminal vesicle turned out to be 55%. In addition, the inhibition in vivo at 0.5 mg with rat prostate came out at 0%. Further, in assay [1], the inhibition in vivo at 0.001 mg was determined as 18.5%, the inhibition in vivo at 0.003 mg was determined as 29.6% and the inhibition in vivo at 0.01 mg was found to be 40.7%. For the same compound, the IC50 in assay [2] (setting [3]) was 33 nM. For the same compound, in assay [2], the “Shionogis (In Vitro) VS OH-FLU (ratio of Ki of hydroxyflutamide versus tested compound)” value came out at 5.

As for `C#Cc1ccc2c(c1)CCC1C2CC[C@@]2(C)C1C[C@@H](C)[C@@H]2O` (stereo partly shown) [EM-5035], in the assay on rat seminal vesicle, the inhibition in vivo at 0.5 mg is 4%. The inhibition in vivo at 0.5 mg in the assay with rat prostate came to 11%. Moreover, in assay [1], the inhibition in vivo at 0.001 mg turned out to be 3.7%, the inhibition in vivo at 0.003 mg turned out to be 11.1% and the inhibition in vivo at 0.01 mg turned out to be 51.9%. Further, the IC50 in assay [2] (setting [3]) was determined as 66 nM. In addition, the “Shionogis (In Vitro) VS OH-FLU (ratio of Ki of hydroxyflutamide versus tested compound)” value in assay [2] worked out at 1.6.
